This is an account of results in the supplement of paper PMC10627819.

Common to all, as to test: Bliss interaction score (quartile over a dose matrix) (fitness difference); higher = more antagonism (negative = synergy)
One assay concerns B. subtilis 168. The method in brief: (§1)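 At entry into stationary phase, OD595 was recorded and divided by the robust mean of the no-drug wells on that plate, with any value above 1 set to 1. This gives the fitness measure used throughout. Single-drug fitness was inferred from combination data, and the Bliss score, observed minus product-expected fitness, is shown as quartiles across technical, biological and donor/recipient replicates.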

In the next assay the test system is S. aureus DSM 20231. The method, boiled down:
as §1

The next assay deals with S. pneumoniae D39V. The method in brief: as §1
The subject of another assay is S. aureus Newman. The method in brief:
as §1
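Further: first quartile when negative (synergy) and third quartile when positive (antagonism).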

Turning to `Cn1nnc(-c2ccc(-c3ccc(N4C[C@H](CO)OC4=O)cc3F)cn2)n1` [Tedizolid] + CC[C@H]1OC(=O)[C@H](C)C(=O)[C@H](C)[C@@H](O[C@@H]2O[C@H](C)C[C@H](N(C)C)[C@H]2O)[C@](C)(OC)C[C@@H](C)C(=O)[C@H](C)[C@H]2N(CCCCn3cnc(-c4cccnc4)c3)C(=O)O[C@]12C [Telithromycin], the Bliss interaction score in the assay with B. subtilis 168 was -0.0463; in the assay with S. aureus DSM 20231 it was -0.0684; in the assay on S. pneumoniae D39V, -0.0527; in the assay on S. aureus Newman, -0.0897.
The matching figures for `CCCCCCCCCC(=O)N[C@@H](Cc1c[nH]c2ccccc12)C(=O)N[C@H](CC(N)=O)C(=O)N[C@@H](CC(=O)O)C(=O)N[C@@H]1C(=O)NCC(=O)N[C@@H](CCCN)C(=O)N[C@@H](CC(=O)O)C(=O)N[C@H](C)C(=O)N[C@@H](CC(=O)O)C(=O)NCC(=O)N[C@H](CO)C(=O)N[C@@H]([C@H](C)CC(=O)O)C(=O)N[C@@H](CC(=O)c2ccccc2N)C(=O)O[C@@H]1C` [Daptomycin] + CO[C@@]12[C@H](COC(N)=O)C3=C(C(=O)C(C)=C(N)C3=O)N1C[C@@H]1N[C@@H]12 [MitomycinC]: 0.0997, 0.0739, -0.0769 and -0.0398.
For `C[C@H]1COc2c(N3CCN(C)CC3)c(F)cc3c(=O)c(C(=O)O)cn1c23` [Levofloxacin] + CCCCCCCCCC(=O)N[C@@H]1[C@H]([C@@H]([C@H](O[C@H]1OC2=C3C=C4C=C2OC5=C(C=C(C=C5)[C@H]([C@H]6C(=O)N[C@@H](C7=C(C(=CC(=C7)O)OC8[C@H]([C@H]([C@@H]([C@H](O8)CO)O)O)O)C9=C(C=CC(=C9)[C@H](C(=O)N6)NC(=O)[C@@H]4NC(=O)[C@@H]1C2=CC(=CC(=C2)OC2=C(C=CC(=C2)[C@H](C(=O)N[C@H](CC2=CC(=C(O3)C=C2)Cl)C(=O)N1)N)O)O)O)C(=O)O)O[C@H]1[C@@H]([C@H]([C@@H]([C@H](O1)CO)O)O)NC(=O)C)Cl)CO)O)O [Teicoplanin], the Bliss interaction score is 0.0334 in the assay on B. subtilis 168 (main component drawn), -0.0673 with S. aureus DSM 20231 (main component drawn), -0.0681 in the assay with S. pneumoniae D39V (main component drawn) and -0.0552 in the assay on S. aureus Newman (main component drawn).
`CO/N=C(\C(=O)N[C@@H]1C(=O)N2C(C(=O)[O-])=C(C[N+]3(C)CCCC3)CS[C@H]12)c1csc(N)n1` [Cefepime] + CN(C)[C@@H]1C(O)=C(C(N)=O)C(=O)[C@@]2(O)C(O)=C3C(=O)c4c(O)ccc(Cl)c4[C@@](C)(O)[C@H]3C[C@@H]12 [Clortetracycline]: the Bliss interaction score in the assay on B. subtilis 168 amounted to 0.0651; with S. aureus DSM 20231 it was 0.0809; with S. pneumoniae D39V it was 0.163; in the assay with S. aureus Newman, 0.105.
The matching figures for `CC1(C)S[C@@H]2[C@H](NC(=O)[C@H](N)c3ccc(O)cc3)C(=O)N2[C@H]1C(=O)O` [Amoxicillin] + CCP(CC)CC.CC(=O)OC[C@@H]1[C@H]([C@@H]([C@H]([C@@H](O1)[S-])OC(=O)C)OC(=O)C)OC(=O)C.[Au+] [Auranofin]: -0.0508, 0.0373, 0.178 and -0.0817.
The matching figures for `Cn1nnc(-c2ccc(-c3ccc(N4C[C@H](CO)OC4=O)cc3F)cn2)n1` [Tedizolid] + CN(C)c1cc(NC(=O)CNC(C)(C)C)c(O)c2c1C[C@H]1C[C@H]3[C@H](N(C)C)C(O)=C(C(N)=O)C(=O)[C@@]3(O)C(O)=C1C2=O [Tigecycline]: -0.0434, -0.107, -0.0764 and 0.0453.
On the same counts, the results for `Cn1nnc(-c2ccc(-c3ccc(N4C[C@H](CO)OC4=O)cc3F)cn2)n1` [Tedizolid] + COc1cc(Cc2cnc(N)nc2N)cc(OC)c1OC [Trimethoprim] are 0.0776, 0.215, -0.0785 and 0.136.
In the case of `C[C@H]1COc2c(N3CCN(C)CC3)c(F)cc3c(=O)c(C(=O)O)cn1c23` [Levofloxacin] + Oc1cc(Cl)ccc1Oc1ccc(Cl)cc1Cl [Triclosan], the Bliss interaction score with B. subtilis 168 was 0.0373; in the assay with S. aureus DSM 20231 it was -0.0551; in the assay with S. pneumoniae D39V it was 0.054; in the assay on S. aureus Newman, -0.0181.
Turning to `CO/N=C(\C(=O)N[C@@H]1C(=O)N2C(C(=O)[O-])=C(C[N+]3(C)CCCC3)CS[C@H]12)c1csc(N)n1` [Cefepime] + O=C(N[C@H](CO)[C@H](O)c1ccc([N+](=O)[O-])cc1)C(Cl)Cl [Chloramphenicol], the Bliss interaction score is 0.109 with B. subtilis 168, 0.158 in the assay with S. aureus DSM 20231, 0.149 in the assay on S. pneumoniae D39V and 0.0591 in the assay on S. aureus Newman.
The matching figures for `CC1(C)S[C@@H]2[C@H](NC(=O)[C@H](N)c3ccc(O)cc3)C(=O)N2[C@H]1C(=O)O` [Amoxicillin] + CN(C)[C@@H]1C(O)=C(C(N)=O)C(=O)[C@@]2(O)C(O)=C3C(=O)c4c(O)ccc(Cl)c4[C@@](C)(O)[C@H]3C[C@@H]12 [Clortetracycline]: 0.164, 0.0294, 0.168 and -0.0669.
With `CO/N=C(\C(=O)N[C@@H]1C(=O)N2C(C(=O)[O-])=C(C[N+]3(C)CCCC3)CS[C@H]12)c1csc(N)n1` [Cefepime] + C[C@H]1c2cccc(O)c2C(=O)C2=C(O)[C@]3(O)C(=O)C(C(N)=O)=C(O)[C@@H](N(C)C)[C@@H]3[C@@H](O)[C@@H]21 [Doxycycline], the Bliss interaction score was 0.0669 with B. subtilis 168, 0.119 with S. aureus DSM 20231, 0.203 in the assay with S. pneumoniae D39V and 0.0446 with S. aureus Newman.
On the same counts, the results for `CO/N=C(\C(=O)N[C@@H]1C(=O)N2C(C(=O)[O-])=C(C[N+]3(C)CCCC3)CS[C@H]12)c1csc(N)n1` [Cefepime] + CO/N=C(\C(=O)N[C@@H]1C(=O)N2C(C(=O)O)=C(COC(N)=O)CS[C@H]12)c1ccco1 [Cefuroxime] are -0.0417, 0.0866, -0.0435 and 0.0741.
On the same counts, the results for `CO/N=C(\C(=O)N[C@@H]1C(=O)N2C(C(=O)[O-])=C(C[N+]3(C)CCCC3)CS[C@H]12)c1csc(N)n1` [Cefepime] + CO/N=C(\C(=O)N[C@@H]1C(=O)N2C(C(=O)O)=C(COC(C)=O)CS[C@H]12)c1csc(N)n1 [Cefotaxime] are 0.0354, 0.0767, 0.0698 and 0.0764.
